PMC5762686, “Structural ensemble-based docking simulation and biophysical studies discovered new inhibitors of Hsp90 N-terminal domain” (Scientific Reports, 2018)
Where two headings read alike, the source gives them in different places.

Legend:
Hsp90N [1] = tested on: Hsp90N; set-up: method as in PMID 27899599; conditions: PubChem BioAssay database AID: 712; cited from earlier work
Hsp90N [2] = tested on: Hsp90N; set-up: method as in PMID 19519743; conditions: BindingDB; cited from earlier work
Hsp90N [3] = molecular target: T1, Hsp90N (Homo sapiens, UniProt P07900); assay: Differential scanning fluorimetry (DSF), change of Tm; format: binding; conditions: apo Tm 44.4 °C, Hsp90N 2 μM, inhibitor 200 μM
T1 construct: contains DNA corresponding to residues 1–235 of human Hsp90α; made in house; host or cells: Escherichia coli BL21 (DE3)
Procedure: We also measured the change in the Tm value using differential scanning fluorimetry (DSF) to support direct binding (Fig. 2C).
DSF using a RT-PCR system (CFX connect, BioRad) assessed the stability of Hsp90N in the absence and presence of the hit compounds that were identified by 2D NMR[75]. Once Sypro-Orange (5×) was added into the solution of Hsp90N with each hit compound, the fluorescence from the dye was measured with excitation at 492 nm and emission at 610 nm in a temperature-dependent manner from 30 to 90 °C. The concentrations for Hsp90N and inhibitors were 2 and 200 μM, respectively. As a control, DMSO was mixed with the protein, and the fluorescence was measured with an identical procedure. The mid-point of the melting temperature, Tm, was deduced by calculating the temperature that maximizes the differential curve of the profiles.

Hsp90 = tested on: Hsp90; set-up: method as in PMID 16854066; conditions: fluorescence polarization; cited from earlier work

Structure (SMILES): Cc1cc(SCC(N)=O)nc(SCC(=O)c2ccccc2)n1 [ZINC00421600]
- IC50 (Hsp90N [1]): 50000 nM

Structure (SMILES): Oc1ccc(-c2n[nH]c(=S)n2-c2ccccc2)c(O)c1 [ZINC01264822]
- IC50 (Hsp90N [2]): 0.5 nM

Structure (SMILES): CCc1cc(-c2n[nH]cc2-c2ccc3c(c2)OCO3)c(O)cc1O [ZINC18130036]
- IC50 (Hsp90N [1]): 2000 nM

Structure (SMILES): CO[C@H]1/C=C\C=C(/C)C(=O)NC2=CC(=O)C(NCCN(C)C)=C(C[C@@H](C)C[C@H](OC)[C@H](O)[C@@H](C)/C=C(\C)[C@@H]1OC(N)=O)C2=O [17-DMAG]
- elevated Tm values (Hsp90N [3]): 11.3
- IC50 (Hsp90): 62 nM
